{"source": "patent US20210130291A1", "about": "“METHODS FOR TREATING DIABETES USING VDAC1 INHIBITORS” (THE NATIONAL INSTITUTE FOR BIOTECHNOLOGY IN THE NEGEV LTD., priority 2016, published 2021)", "key": {"[1]": {"test_system": "islets from T2D donors", "assay": "ATP content and GSIS in islets from T2D donors, acute addition of VDAC1 inhibitors", "format": "cell-based, human", "conditions": "for GSIS: T2D islets, acute addition 1 h (FIG. 6f); for islet ATP content: islets from 5 T2D donors and one IGT donor, 1 h, at 1 and 16.7 mM glucose (FIG. 6e)", "from_the_text": "Human pancreatic islets were obtained through collaboration between Human Tissue Laboratory within Lund University Diabetes Centre (LUDC) and the Nordic Network for Clinical Islet Transplantation (Prof. Olle Korsgren, Uppsala University, Sweden). Donors were grouped according to HbA1c i.e. less than 6% (ND), between 6% and 6.5% (IGT), higher than 6.5% or history of diabetes (T2D). The human islets (70-90% purity) had been cultured in CMRL 1066 (ICN Biomedicals, Costa Mesa, Calif.) supplemented with 10 mM HEPES, 2 mM L-glutamine, […] gentamicin, […] fungizone (Gibco, BRL, Gaithersburg, Md.), 20 μg/ml ciprofloxacin (Bayer Healthcare, Leverkusen, Germany) and 10 mM nicotinamide at 37° C. (5% CO2) for 1 to 5 days prior to the arrival in the laboratory. The islets were then hand-picked under stereomicroscope prior to use. All procedures using human islets were approved by the ethical committees at Uppsala and Lund Universities, Sweden.\nHuman pancreatic islets were collected under a stereomicroscope at room temperature and cultured at 5.5 or 20 mM glucose in the absence or presence of test agents for 72 h. Thereafter the islets were washed and preincubated for 30 min at 37° C. in Krebs Ringer bicarbonate buffer, pH 7.4, supplemented with N-2 hydroxyethylpiperazine-N′-2-ethanesulfonic acid (10 mM), 0.1% bovine serum albumin, and 1 mM glucose. Each incubation vial contained 12 islets in 1.0 ml KRB buffer solution and treated with 95% O2 and 5% CO2 to obtain constant pH and oxygenation. After preincubation, the buffer was changed to a medium containing either 1 mM or 16.7 mM glucose. The islets were then incubated for 1 h at 37° C. in a metabolic shaker (30 cycles per min). Immediately after incubation an aliquot of the medium was removed for analysis of insulin and the islets were incubated in acid-ethanol for insulin content determination by radioimmunoassay.\n(§1) ATP release from isolated mouse or human islets or from INS-1 cells after transfection with mitochondrial targeted VDAC1 (mtVDAC1) or plasma membrane targeted VDAC1 (plVDAC1) plasmids was determined using a luminometric assay kit according to manufacturer's recommendation (Biovision). After incubation of islets (50/vial) or INS-1 cells for 60 min, an aliquot of the media was removed for subsequent measurements of released ATP. Then the islets or INS-1 cells were washed 3 times and the lysates were used for measurements of ATP and protein contents followed the protocol provided by the vendor."}, "[2]": {"target": "T1, plasma membrane targeted VDAC1 (plVDAC1) (Mus musculus, UniProt Q60932)", "T1 construct": "expressed in transfected cells; host or cells: INS-1 832/13 cells (rat insulinoma), transient transfection; plasmid a gift from Dr. R. Buettner", "T1 sequence (Q60932 whole entry)": "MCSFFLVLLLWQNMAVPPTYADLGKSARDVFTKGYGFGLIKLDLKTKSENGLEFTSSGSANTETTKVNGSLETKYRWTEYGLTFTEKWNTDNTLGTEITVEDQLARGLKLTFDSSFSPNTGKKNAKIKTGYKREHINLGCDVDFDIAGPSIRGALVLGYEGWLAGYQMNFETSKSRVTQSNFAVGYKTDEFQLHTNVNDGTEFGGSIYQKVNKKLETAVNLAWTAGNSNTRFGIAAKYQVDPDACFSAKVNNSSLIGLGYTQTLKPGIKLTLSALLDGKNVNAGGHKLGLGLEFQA", "assay": "ATP release and ATP content of INS-1 cells transfected with plasma membrane targeted VDAC1", "format": "cell-based", "conditions": "plVDAC1-transfected INS-1 cells, 1 h at 1 mM glucose; for ATP release (loss of cellular ATP): VDAC1-ab 10 nM, metformin, AKOS, VBIT-4 20 μM each (FIG. 4c)", "protocol": "as §1\nINS-1 cells were transiently transfected with a plasmid encoding plasma membrane targeted VDAC1 (pVDAC1) as described in the Material and Method section herein above and in Example 3 (see also Buettner et al 2000. PNAS 97:3201-3206). After transfection (24-32 h and 2-4 h recovery in normal culture medium, RPMI 1640 with complete supplement) the INS-1 cells were washed followed by preincubation in SAB-buffer (See Material and Method above) containing 2.8 mM glucose. The final 1 h incubation was performed in SAB-buffer containing 1 mM glucose and the VDAC1 inhibitory compounds to be tested. At the end, the cells were lysed using lysis buffer, sonicated and the lysate as well as the incubation medium were analyzed for ATP content using a commercially available kit (Biovision, K354-100). Cellular protein content was analyzed by Pierce™ BCA protein assay kit (Thermo Scientific, USA)."}, "[3]": {"test_system": "VDAC1 expression in INS-1 cells", "assay": "VDAC1 expression in INS-1 cells cultured at 5 or 20 mM glucose", "format": "cell-based, rat", "conditions": "INS-1 cells cultured 72 h at 20 mM glucose; VDAC1ab 10 nM, metformin, AKOS, VBIT-4 20 μM each (FIG. 4l, 4m)", "protocol": "INS-1 832/13 cells (kindly donated by Dr. C. B. Newgaard, Duke University, USA) were cultured in RPMI-1640 containing 11.1 mM D-glucose and supplemented with 10% fetal bovine serum, 100 U/ml penicillin (Gibco), 100 µg/ml streptomycin (Gibco), 10 mM HEPES, 2 mM glutamine, 1 mM sodium pyruvate, and 50 µM β-mercaptoethanol (Sigma), at 37° C. in a humidified atmosphere containing 95% air and 5% CO2. For VDAC1 over-expression by VDAC1 plasmid (1 μg/ml) and VDAC2 down-regulation by and siRNA, INS1 832/13 cells were cultured to 60% confluence. To study the long-term effects (24-72 h) of high glucose (20 mM) (glucotoxicity) compared to basal glucose (5 mM), INS-1 832/13 cells were cultured with RPMI 1640 complete media (Ahmed, M., et al., 2010. Islets 2, 283-292) in the presence or absence of indicated agents and thereafter VDAC1 expression, cell viability and function was measured.\nTotal RNA from handpicked mouse islets, human donor islets (Diabetic and non-diabetic) or INS1 832/13 cells were extracted using RNAeasy (Qiagen, Hilden, Germany). RNA ([…]) was used for cDNA synthesis with SuperScript (Invitrogen, Carlsbad, Calif., USA). Concentration and purity of total RNA was measured with a NanoDrop ND-1000 spectrophotometer (A260/A280>1.9 and A260/A230>1.4) (NanoDrop Technologies, Wilmington, Del.) and RNA Quality Indicator (RQI) higher than 8.0 (Experion Automated Electrophoresis, Bio-Rad, USA) was considered to be high-quality total RNA preparations. A 10 μl of reaction mixture with 20 ng cDNA, 5 μl TaqMan mastermix (Applied Biosystems, Foster City, Calif., USA), and 100 nM TagMan gene expression assay were run in a 7900HT Fast Real-Time System (Applied Biosystems). The qPCR was carried out as follows: 50° C. for 2 minutes, 95° C. for 10 minutes, 40 cycles of 95° C. for 15 seconds, and 60° C. for 1 minute. The amount of mRNA was calculated relative to the amount of housekeeping genes (GAPDH, PPIA or HPRT) mRNA in the same sample by the formula X0/R0=2CtR-CtX, where X0 is the original amount of mRNA for the gene of interest, R0 is the original amount of HPRT mRNA, CtR the Ct value for HPRT, and CtX the Ct value for the gene of interest. Primer sequences are provided upon request."}}, "note": "Entries after “also recorded” stand apart in the source; their conditions may differ."}
{"molecule": "CN(C)C(=N)N=C(N)N", "note": "[metformin]", "values": [{"measurement": "GSIS", "setting": "[1]", "result": "increased in parallel with the improved ATP generation"}, {"measurement": "islet ATP content", "setting": "[1]", "result": "increased islet ATP content"}, {"measurement": "ATP release (loss of cellular ATP)", "setting": "[2]", "result": "prevented; also recorded: rapidly inhibited"}, {"measurement": "glucose evoked VDAC1 upregulation (total VDAC1 expression)", "setting": "[3]", "result": "abrogated the glucose evoked VDAC1 upregulation"}]}
{"molecule": "O=C(CC(CO)N1CCN(c2ccc(OC(F)(F)F)cc2)CC1)Nc1ccc(Cl)cc1", "note": "(racemic) [VBIT-4, N-(4-chlorophenyl)-4-hydroxy-3-(4-(4-(trifluoromethoxy)phenyl)-piperazin-1-yl)butanamide]", "values": [{"measurement": "GSIS", "setting": "[1]", "result": "increased in parallel with the improved ATP generation"}, {"measurement": "islet ATP content", "setting": "[1]", "result": "increased islet ATP content"}, {"measurement": "ATP release", "setting": "[2]; racemate and enantiomers (FIG. 9a), listed as racemic VBIT-4", "result": "efficiently inhibit ATP release; also recorded: no discernible difference"}, {"measurement": "cellular ATP content", "setting": "[2]; racemate and enantiomers (FIG. 9b), listed as racemic VBIT-4", "result": "increase cellular ATP content; also recorded: intermediate between that of its enantiomers 1 and 2"}, {"measurement": "ATP release (loss of cellular ATP)", "setting": "[2]", "result": "prevented; also recorded: rapidly inhibited"}, {"measurement": "glucose evoked VDAC1 upregulation (total VDAC1 expression)", "setting": "[3]", "result": "abrogated the glucose evoked VDAC1 upregulation"}]}
